Measurements taken from ChEMBL document CHEMBL1128713, “N-alkylated nitrogen-in-the-ring sugars: conformational basis of inhibition of glycosidases and HIV-1 replication” (J Med Chem, 1995).
pIC50, pKi: −log10 of the molar value. ≈ marks a conversion by molar mass, not a printed value.

What was measured:
[1] = Inhibition of Cellobiase in rat intestinal brush border membranes by D-glucose oxidase-peroxidase method; assay type: cell membranes, Membrane
[2] = target: T1, Sucrase-isomaltase, intestinal (Rattus norvegicus, UniProt P23739); test: Inhibition of Glycosidases (isomaltase)in rat intestinal brush border membranes by D-glucose oxidase-peroxidase method; assay type: cell membranes, Membrane
T1 sequence (P23739 1-1013 limits assumed): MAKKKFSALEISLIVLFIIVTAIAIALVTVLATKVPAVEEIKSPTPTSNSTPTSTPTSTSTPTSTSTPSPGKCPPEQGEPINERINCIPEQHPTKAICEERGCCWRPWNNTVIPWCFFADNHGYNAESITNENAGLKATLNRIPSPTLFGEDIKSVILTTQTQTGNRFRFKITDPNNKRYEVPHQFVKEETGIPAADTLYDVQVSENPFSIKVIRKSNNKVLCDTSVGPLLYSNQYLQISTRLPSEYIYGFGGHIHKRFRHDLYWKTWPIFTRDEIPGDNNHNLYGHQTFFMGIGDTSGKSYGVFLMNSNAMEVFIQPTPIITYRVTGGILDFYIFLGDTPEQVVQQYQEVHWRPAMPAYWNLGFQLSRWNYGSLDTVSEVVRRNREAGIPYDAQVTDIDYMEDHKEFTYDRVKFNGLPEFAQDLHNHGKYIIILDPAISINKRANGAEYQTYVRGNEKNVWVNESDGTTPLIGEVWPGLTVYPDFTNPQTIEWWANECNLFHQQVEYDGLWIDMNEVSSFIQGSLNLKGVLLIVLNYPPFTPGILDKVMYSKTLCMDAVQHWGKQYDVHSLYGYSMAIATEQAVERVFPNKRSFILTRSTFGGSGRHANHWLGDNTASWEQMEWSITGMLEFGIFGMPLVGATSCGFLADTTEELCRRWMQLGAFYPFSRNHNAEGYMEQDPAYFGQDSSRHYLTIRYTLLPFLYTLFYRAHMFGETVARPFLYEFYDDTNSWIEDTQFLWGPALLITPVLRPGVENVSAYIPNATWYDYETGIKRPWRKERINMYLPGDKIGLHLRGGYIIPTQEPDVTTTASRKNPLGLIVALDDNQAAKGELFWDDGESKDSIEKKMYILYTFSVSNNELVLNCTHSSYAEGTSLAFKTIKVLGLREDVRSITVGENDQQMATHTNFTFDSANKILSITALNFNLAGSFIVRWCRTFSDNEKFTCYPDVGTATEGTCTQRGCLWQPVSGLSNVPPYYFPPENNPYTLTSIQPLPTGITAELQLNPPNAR
T1 sequence (P23739 1014-1841 limits assumed): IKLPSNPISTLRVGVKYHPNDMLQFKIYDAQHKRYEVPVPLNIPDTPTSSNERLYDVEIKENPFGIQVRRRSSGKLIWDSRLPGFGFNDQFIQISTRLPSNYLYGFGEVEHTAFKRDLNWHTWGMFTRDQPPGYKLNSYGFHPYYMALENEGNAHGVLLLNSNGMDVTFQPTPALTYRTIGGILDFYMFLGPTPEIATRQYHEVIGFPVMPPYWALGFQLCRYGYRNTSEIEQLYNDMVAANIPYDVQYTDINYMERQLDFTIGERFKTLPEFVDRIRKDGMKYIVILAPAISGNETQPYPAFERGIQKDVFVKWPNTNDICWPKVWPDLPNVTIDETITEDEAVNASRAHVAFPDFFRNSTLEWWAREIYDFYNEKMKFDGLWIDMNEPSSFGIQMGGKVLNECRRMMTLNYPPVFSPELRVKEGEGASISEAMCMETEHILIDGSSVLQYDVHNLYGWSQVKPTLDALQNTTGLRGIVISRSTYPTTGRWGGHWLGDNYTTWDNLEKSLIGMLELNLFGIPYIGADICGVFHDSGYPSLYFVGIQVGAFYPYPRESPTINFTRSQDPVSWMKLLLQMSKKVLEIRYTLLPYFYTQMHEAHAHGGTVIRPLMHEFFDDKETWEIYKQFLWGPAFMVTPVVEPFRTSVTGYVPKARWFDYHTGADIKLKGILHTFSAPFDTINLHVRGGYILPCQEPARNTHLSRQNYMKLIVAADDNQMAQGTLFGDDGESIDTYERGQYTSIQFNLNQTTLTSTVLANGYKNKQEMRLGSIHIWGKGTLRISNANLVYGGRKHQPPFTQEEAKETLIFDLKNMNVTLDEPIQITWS

[3] = Competitive Inhibitory activity against Endoplasmic reticulum Alpha-Glucosidase II; design: species or system Rattus norvegicus
Alpha-mannosidase 2 [4] = target: T2, Alpha-mannosidase 2 (Rattus norvegicus, UniProt P28494); test: Competitive Inhibitory activity against Golgi Alpha-mannosidase II
T2 sequence (P28494 whole entry): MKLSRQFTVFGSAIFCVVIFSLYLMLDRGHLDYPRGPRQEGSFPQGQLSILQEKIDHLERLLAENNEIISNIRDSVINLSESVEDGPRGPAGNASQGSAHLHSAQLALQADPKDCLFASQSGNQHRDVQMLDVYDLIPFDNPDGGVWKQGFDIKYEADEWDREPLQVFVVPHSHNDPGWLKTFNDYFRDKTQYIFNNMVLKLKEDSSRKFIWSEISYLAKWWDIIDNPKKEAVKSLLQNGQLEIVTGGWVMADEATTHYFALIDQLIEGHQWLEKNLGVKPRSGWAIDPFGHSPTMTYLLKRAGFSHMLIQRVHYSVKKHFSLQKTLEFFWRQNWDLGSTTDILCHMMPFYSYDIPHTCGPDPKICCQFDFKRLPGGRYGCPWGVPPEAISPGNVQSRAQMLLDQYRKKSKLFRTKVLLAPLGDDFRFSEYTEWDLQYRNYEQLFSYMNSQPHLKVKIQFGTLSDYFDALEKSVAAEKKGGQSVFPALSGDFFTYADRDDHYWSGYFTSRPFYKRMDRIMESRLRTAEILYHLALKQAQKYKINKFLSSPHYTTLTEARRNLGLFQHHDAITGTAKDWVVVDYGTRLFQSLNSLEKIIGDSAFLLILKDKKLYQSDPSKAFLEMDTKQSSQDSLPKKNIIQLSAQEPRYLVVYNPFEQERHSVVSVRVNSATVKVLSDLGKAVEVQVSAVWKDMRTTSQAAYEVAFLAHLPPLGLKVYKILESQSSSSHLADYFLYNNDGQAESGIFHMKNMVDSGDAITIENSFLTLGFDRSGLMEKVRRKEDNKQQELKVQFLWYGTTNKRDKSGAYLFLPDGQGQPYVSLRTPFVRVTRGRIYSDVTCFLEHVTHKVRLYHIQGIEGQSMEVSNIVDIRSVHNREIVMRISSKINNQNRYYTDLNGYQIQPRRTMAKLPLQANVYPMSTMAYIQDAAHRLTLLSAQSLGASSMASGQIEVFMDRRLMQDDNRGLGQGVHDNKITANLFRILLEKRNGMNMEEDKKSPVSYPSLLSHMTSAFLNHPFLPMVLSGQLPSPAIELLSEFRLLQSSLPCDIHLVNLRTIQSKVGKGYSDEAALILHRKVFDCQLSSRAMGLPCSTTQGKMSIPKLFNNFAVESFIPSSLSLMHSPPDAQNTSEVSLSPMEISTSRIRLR

[5] = Inhibition of endoplasmic reticulum Alpha-Glucosidase II in rat liver; assay type: tissue-based
MOLT-4 = test: Concentration giving 50% inhibition of HIV-1 induced cytopathogenicity in MOLT-4 cells; assay type: functional, cell-based, Homo sapiens
Trehalase = target: T3, Trehalase (Rattus norvegicus, UniProt O70282); test: Inhibition of Glycosidases (trehalase)in rat intestinal brush border membranes by D-glucose oxidase-peroxidase method; assay type: cell membranes, Membrane
T3 sequence (O70282 whole entry): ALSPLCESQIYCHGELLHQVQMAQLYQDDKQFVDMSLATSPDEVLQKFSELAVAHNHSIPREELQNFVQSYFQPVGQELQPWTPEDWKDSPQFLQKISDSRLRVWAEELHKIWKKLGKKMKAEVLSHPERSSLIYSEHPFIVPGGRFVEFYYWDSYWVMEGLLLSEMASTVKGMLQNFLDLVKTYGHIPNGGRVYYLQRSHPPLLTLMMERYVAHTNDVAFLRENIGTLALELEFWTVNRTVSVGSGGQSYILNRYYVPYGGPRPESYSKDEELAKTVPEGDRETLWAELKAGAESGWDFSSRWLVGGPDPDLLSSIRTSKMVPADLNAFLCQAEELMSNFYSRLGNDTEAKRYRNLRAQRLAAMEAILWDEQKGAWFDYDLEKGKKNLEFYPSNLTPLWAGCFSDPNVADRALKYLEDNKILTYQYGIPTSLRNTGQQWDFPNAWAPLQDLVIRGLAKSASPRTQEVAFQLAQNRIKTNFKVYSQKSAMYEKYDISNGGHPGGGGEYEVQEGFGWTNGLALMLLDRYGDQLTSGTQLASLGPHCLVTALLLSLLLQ

Alpha-mannosidase 2C1 = target: T4, Alpha-mannosidase 2C1 (Rattus norvegicus, UniProt P21139); test: Inhibition of soluble Alpha-mannosidase II in rat liver; assay type: tissue-based
T4 sequence (P21139 whole entry): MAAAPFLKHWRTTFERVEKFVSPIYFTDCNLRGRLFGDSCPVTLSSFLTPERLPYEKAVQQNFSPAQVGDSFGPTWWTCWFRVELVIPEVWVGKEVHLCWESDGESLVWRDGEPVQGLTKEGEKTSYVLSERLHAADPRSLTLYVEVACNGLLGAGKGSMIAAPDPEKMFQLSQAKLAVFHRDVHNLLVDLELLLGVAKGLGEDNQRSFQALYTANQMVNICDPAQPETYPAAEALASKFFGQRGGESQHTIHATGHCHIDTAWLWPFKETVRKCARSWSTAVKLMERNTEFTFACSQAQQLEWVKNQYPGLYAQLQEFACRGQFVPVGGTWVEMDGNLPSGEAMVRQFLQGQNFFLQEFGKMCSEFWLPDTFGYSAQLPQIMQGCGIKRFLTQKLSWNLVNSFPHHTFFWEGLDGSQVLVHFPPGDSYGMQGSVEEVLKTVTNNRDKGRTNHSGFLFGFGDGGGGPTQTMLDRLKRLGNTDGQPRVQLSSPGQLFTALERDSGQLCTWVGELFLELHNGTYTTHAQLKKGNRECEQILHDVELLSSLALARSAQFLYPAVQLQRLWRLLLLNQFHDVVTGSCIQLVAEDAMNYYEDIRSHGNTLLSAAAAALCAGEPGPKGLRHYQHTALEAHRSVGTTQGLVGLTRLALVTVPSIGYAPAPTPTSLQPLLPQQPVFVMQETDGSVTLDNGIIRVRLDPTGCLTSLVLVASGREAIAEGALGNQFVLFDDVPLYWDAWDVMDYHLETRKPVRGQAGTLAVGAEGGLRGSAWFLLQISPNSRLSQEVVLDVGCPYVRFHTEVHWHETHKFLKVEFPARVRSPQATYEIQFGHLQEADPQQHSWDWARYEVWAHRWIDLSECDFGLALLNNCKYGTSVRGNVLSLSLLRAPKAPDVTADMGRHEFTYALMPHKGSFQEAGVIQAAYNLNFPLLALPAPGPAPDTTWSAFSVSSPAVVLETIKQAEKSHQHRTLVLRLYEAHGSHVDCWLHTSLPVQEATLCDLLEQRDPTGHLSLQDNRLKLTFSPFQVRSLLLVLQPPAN

Alpha-mannosidase 2 [6] = target: T2, Alpha-mannosidase 2; test: Inhibition of golgi Alpha-mannosidase II in rat liver; assay type: tissue-based
[7] = target: T1, Sucrase-isomaltase, intestinal; test: Inhibition of Sucrase in rat intestinal brush border membranes by D-glucose oxidase-peroxidase method; assay type: cell membranes, Membrane
Mannosidase 2, alpha B1 = target: T5, Mannosidase 2, alpha B1 (Rattus norvegicus, UniProt Q6P762); test: Inhibition of lysosomal Alpha-mannosidase II in rat liver; assay type: tissue-based
T5 sequence (Q6P762 whole entry): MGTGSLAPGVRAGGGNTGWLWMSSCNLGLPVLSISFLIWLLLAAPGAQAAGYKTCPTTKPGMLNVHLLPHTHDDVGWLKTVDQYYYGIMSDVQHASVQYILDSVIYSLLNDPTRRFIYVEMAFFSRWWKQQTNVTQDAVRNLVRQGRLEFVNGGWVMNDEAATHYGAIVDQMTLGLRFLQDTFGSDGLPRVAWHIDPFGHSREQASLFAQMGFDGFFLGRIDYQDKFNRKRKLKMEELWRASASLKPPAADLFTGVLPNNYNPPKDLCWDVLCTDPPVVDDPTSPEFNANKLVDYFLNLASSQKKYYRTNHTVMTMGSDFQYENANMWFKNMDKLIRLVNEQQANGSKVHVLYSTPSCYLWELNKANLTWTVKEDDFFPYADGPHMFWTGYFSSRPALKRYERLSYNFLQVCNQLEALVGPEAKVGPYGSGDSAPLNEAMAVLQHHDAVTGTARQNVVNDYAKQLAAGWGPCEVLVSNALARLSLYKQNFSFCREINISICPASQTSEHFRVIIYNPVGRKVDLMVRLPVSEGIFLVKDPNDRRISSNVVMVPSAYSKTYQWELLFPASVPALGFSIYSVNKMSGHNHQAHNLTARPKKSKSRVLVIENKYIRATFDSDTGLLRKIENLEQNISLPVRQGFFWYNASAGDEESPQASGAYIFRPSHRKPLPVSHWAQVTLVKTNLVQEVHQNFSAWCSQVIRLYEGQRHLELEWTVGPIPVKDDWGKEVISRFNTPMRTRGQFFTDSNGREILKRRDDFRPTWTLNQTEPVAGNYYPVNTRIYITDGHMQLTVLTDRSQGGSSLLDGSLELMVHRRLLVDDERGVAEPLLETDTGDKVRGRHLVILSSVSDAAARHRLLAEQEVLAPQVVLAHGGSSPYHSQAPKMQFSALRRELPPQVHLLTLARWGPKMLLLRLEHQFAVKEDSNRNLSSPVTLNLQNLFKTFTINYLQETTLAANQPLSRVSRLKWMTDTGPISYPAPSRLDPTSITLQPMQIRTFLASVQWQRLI

[8] = target: Lactase/phlorizin hydrolase (Rattus norvegicus, UniProt Q02401); test: Inhibition of Glycosidases (lactase)in rat intestinal brush border membranes by D-glucose oxidase-peroxidase method; assay type: cell membranes, Membrane
Lactase/phlorizin hydrolase, sequence (Q02401 868-1928 limits assumed): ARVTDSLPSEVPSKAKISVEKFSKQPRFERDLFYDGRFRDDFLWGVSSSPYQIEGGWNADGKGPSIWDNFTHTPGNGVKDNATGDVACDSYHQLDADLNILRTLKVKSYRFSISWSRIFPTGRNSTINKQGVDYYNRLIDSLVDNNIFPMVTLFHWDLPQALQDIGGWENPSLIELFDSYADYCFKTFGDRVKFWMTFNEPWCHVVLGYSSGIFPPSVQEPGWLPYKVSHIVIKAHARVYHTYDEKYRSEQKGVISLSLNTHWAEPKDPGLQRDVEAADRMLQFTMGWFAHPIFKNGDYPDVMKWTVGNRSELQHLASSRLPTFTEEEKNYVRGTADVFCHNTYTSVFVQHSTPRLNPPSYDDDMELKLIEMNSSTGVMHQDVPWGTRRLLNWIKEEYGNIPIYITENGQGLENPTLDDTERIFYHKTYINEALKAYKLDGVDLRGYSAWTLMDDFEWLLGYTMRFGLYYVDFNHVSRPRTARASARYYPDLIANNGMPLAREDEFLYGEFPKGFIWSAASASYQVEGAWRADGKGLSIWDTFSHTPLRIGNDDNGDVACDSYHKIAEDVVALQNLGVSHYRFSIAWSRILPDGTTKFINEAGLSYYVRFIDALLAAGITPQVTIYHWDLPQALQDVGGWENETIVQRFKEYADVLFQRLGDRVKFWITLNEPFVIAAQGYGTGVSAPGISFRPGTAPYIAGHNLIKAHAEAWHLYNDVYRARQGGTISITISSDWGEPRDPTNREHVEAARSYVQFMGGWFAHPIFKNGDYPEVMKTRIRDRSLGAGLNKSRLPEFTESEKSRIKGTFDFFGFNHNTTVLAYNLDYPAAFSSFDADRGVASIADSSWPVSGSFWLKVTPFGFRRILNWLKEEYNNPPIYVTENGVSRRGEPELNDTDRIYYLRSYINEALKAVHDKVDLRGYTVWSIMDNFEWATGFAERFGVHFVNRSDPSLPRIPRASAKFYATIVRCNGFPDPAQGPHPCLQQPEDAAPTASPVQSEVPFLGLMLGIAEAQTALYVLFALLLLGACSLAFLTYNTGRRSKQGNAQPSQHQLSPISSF

[9] = Inhibition of lysosomal Alpha-Glucosidase II in rat liver
MT4 = test: Concentration giving 50% inhibition of HIV-1 induced cytopathogenicity in MT-4 cells; assay type: functional, cell-based, Homo sapiens

pIC50 [1] | pIC50 [2] | pKi [3] | pKi (Alpha-mannosidase 2 [4]) | pIC50 [5] | EC50 (MOLT-4) [µg/mL] | pIC50 (Trehalase) | pIC50 (Alpha-mannosidase 2C1) | pIC50 (Alpha-mannosidase 2 [6]) | pIC50 [7] | pIC50 (Mannosidase 2, alpha B1) | pIC50 [8] | pIC50 [9] | Structure (SMILES) | EC50 (MT4) [µg/mL]
> 4.30 | 4.00 | 3.82 | 4.29 | 3.51 | > 100 | > 4.30 | > 4.30 | 4.19 | 4.15 | 3.44 | > 4.30 | 3.74 | CN1C[C@@H](O)[C@H](O)[C@H]1CO | > 100
– | 5.36 | 5.24 | > 4.30 | 4.70 | 100 (≈ 564 µM) | 4.55 | 3.30 | > 4.30 | 7.40 | 3.00 | 5.36 | 5.82 | CN1C[C@H](O)[C@@H](O)[C@H](O)[C@H]1CO | 69 (≈ 389 µM)
> 4.30 | – | 5.43 | > 4.30 | 4.82 | 37 (≈ 169 µM) | 4.89 | > 4.30 | > 4.30 | – | > 4.30 | – | 5.28 | CCCCN1C[C@H](O)[C@@H](O)[C@H](O)[C@H]1CO | 49 (≈ 223 µM)
> 4.30 | 3.47 | 4.02 | 3.92 | 3.70 | > 100 | > 4.30 | > 4.30 | 3.89 | 3.57 | > 4.30 | > 4.30 | 3.12 | CCCCN1C[C@@H](O)[C@H](O)[C@H]1CO | > 100

The next lines start with the compound.

Structure (SMILES) | pIC50 [1] | pIC50 [2] | pKi [3] | pKi (Alpha-mannosidase 2 [4]) | pIC50 [5] | EC50 (MOLT-4) [µg/mL] | pIC50 (Trehalase) | pIC50 (Alpha-mannosidase 2C1) | pIC50 (Alpha-mannosidase 2 [6]) | pIC50 [7] | pIC50 (Mannosidase 2, alpha B1) | pIC50 [8] | pIC50 [9] | EC50 (MT4) [µg/mL]
OC[C@H]1N[C@H](CO)[C@@H](O)[C@@H]1O | – | 4.04 | – | – | > 4.30 | > 100 | – | 3.59 | – | 4.36 | > 4.30 | – | – | > 100
CN1[C@H](CO)[C@@H](O)[C@H](O)[C@H]1CO | > 4.30 | > 4.30 | – | – | > 4.30 | > 100 | – | 3.72 | > 4.30 | 3.21 | > 4.30 | > 4.30 | 3.33 | > 100
OC[C@H]1NC[C@@H](O)[C@@H]1O | > 4.30 | – | 5.01 | 4.46 | 4.70 | > 100 | 4.60 | – | 4.34 | – | – | 3.59 | 3.89 | > 100
CCCCN1[C@H](CO)[C@@H](O)[C@H](O)[C@H]1CO | > 4.30 | > 4.30 | – | – | > 4.30 | > 100 | – | 3.07 | > 4.30 | > 4.30 | > 4.30 | > 4.30 | > 4.30 | > 100
OC[C@H]1NC[C@H](O)[C@@H](O)[C@@H]1O [DUVOGLUSTAT] | – | – | – | > 4.30 | – | > 100 | – | – | > 4.30 | – | – | – | 6.40 | > 100
